Publication PMC11756396 (Nature Communications, 2025)

Legend:
[1] = test system: TCR4-expressing T cells co-cultured with HLA-A3+ antigen presenting cells (Cos-7); assay: TNFα production by TCR4-transduced T cells (intracellular cytokine staining); conditions: Conc. 100 (unit not given), mean of three replicates
[2] = test system: T cells; conditions: high, supraphysiological concentrations; cited from earlier work
[3] = molecular target: T1, HLA-A3 (Homo sapiens, UniProt P04439); assay: Peptide dissociation from HLA-A3 by fluorescence anisotropy; type: binding
T1 construct: the extracellular domain of the MHC heavy chain, β2-microglobulin, TCR α and β chains; made in house
T1 sequence (P04439 25-308 limits assumed): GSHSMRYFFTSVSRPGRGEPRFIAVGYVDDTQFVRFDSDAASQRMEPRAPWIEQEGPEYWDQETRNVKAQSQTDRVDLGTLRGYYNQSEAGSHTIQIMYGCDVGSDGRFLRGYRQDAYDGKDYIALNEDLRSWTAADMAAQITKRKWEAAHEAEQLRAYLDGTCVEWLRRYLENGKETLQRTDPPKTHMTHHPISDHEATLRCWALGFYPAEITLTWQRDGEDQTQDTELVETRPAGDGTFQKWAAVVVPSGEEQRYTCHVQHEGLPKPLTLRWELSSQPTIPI
T1 sequence (P61769 21-119 partner): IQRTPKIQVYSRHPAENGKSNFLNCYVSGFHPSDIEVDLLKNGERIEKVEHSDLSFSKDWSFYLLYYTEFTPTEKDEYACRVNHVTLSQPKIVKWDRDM

[4] = molecular target: T1, HLA-A3; assay: 19F NMR of 5F-Trp-substituted peptide/HLA-A3; conditions: 5F-Trp6, 0.3 mM complex, pH 7.4, 5 °C
Experimental: ^19F NMR spectra were recorded using a Bruker 600 MHz NMR instrument with a QCI cryogenic probe at NMRFAM, University of Wisconsin-Madison. All proteins were solubilized in 10 mM HEPES, 150 mM NaCl, pH 7.4 with 10% D2O (Cambridge Isotope Laboratories DLM-4-25).
NMR probe temperature was maintained at a calibrated value of 5.2 °C. […] To improve the signal/noise ratio, we compared ^19F 1D spectra recorded with and without proton decoupling. Decoupling caused a noticeable reduction of the signal intensity of the ^19F nuclear spin in the context of the complexes; therefore, all spectra were collected un-decoupled to maximize sensitivity. The reference frequency of the ^19F channel was set through internal routines of the Topspin acquisition software after the spectrometer was locked on D2O. The recycle delay was optimized to find the best compromise between the longitudinal relaxation and the repetition rate for signal averaging. The optimal values of D1 = 0.4 s and AQ = 0.59 s were used in all experiments. One-dimensional fluorine experiments were recorded with the pulse program zgflqn.F from the standard Bruker library with TD1 = 134,078 points and a spectral width (SW) of 200 ppm. […] The 4 h data blocks were checked individually for a possible frequency drift (which was not detected) and added to obtain combined datasets with improved signal/noise ratio. […]

[5] = test system: TCR4-expressing T cells co-cultured with HLA-A3+ antigen presenting cells (Cos-7); assay: CD107a degranulation of TCR4-transduced T cells, peptide-pulsed HLA-A3+ APC (flow cytometry); conditions: for CD107a, absolute frequency: TCR4, 6 h co-culture, E:T 1:1, mean of three replicates
Experimental: TCR-T cells were utilized for downstream functional analysis at days 5–8 post transduction.
Cos-7 cells were electroporated with 100 μg/mL of HLA-A*03:01 mRNA and plated into 96-well round-bottom plates overnight. […] Cells were washed with 1× PBS to remove any unbound peptide. […] Cells were washed again with PBS and then fixed and permeabilized for 15 min at 4 °C. […] All antibodies were used at a final concentration of 5 μg/mL. Finally, cells were washed with perm-wash buffer, suspended in 2% FBS in PBS, and data acquired on an X20 LSR Fortessa flow cytometer with the BD FACSDiva software.

[6] = molecular target: T1, HLA-A3; conditions: PIK3CA–HLA-A3 complex; quoted in peer review; cited from earlier work
[7] = test system: TCR3-expressing T cells co-cultured with HLA-A3+ antigen presenting cells (Cos-7); assay: TNFα production by TCR3-transduced T cells (intracellular cytokine staining); conditions: Conc. 100 (unit not given), mean of three replicates
[8] = molecular target: T1, HLA-A3; design: method as in 2 sources, one per row (each row's own in cited_ref): ref 15 (a number printed in a supplementary file, which may have a reference list of its own: not looked up in the article's list) ||| ref 10, ref 15; conditions: cited from earlier work

Sequence: AHHGGWTTK [WT peptide, wild-type PI3Kα peptide, His at position 2, presented by HLA-A3]
- TNFα, absolute frequency [1]: 2.4
- T cell responses [2]: no responses were seen
- peptide/HLA-A3 dissociation in words ([3]; 4 °C, 100 nM fluorescein-labeled peptide/HLA-A3, 100 μM unlabeled peptide, pH 7.4): only a small amount of dissociation observed over an extended period
- peptide/HLA-A3 stability in words ([3]; 37 °C and 25 °C, 100 nM fluorescein-labeled peptide/HLA-A3, pH 7.4): less stable at 37 °C and 25 °C
- share of remaining 19F population ([4]; broad peak at –[…]): roughly 50%
- share of total 19F signal ([4]; sharp peak at –125.12 ppm (degradation)): about 19%
- CD107a, absolute frequency ([5]; peptide 0.001 ug/mL): 1.367
- CD107a, absolute frequency ([5]; peptide 0.01 ug/mL): 3.473
- CD107a, absolute frequency ([5]; peptide 0.1 ug/mL): 1.267
- CD107a, absolute frequency ([5]; peptide 1 ug/mL): 1.09
- CD107a, absolute frequency ([5]; peptide 10 ug/mL): 1.843
- CD107a, absolute frequency ([5]; peptide 1.00E-05 ug/mL): 1.503
- stimulation (CD107a) ([5]; TCR4 T cells, peptide concentrations as high as 10 μM): no stimulation was evident
- melting temperature (thermal stability) [6]: 37 oC
- TNFα, absolute frequency [7]: 4.823
- half-life of peptide/HLA-A3 complex ([8]; 37 °C (b252/b262 context), quoted in peer review): 4.8 min
- half-life, peptide dissociation ([8]; HLA-A3, 37 °C, fluorescence anisotropy): 4.82 min
